According to paper PMC11257039, “VCP activator reverses nuclear proteostasis defects and enhances TDP-43 aggregate clearance in multisystem proteinopathy models” (The Journal of Clinical Investigation, 2024):
Several values for one entry are separate records, joined by “and”; a condition that tells them apart may be missing. Equal entries are not always repeated. Residues, ends and D or L forms follow the SMILES beside them. *: point of attachment. Cbz = O=C(OCc1ccccc1)*

How the values were obtained:
Type in all cases: cell-based
[1] = tested on: WT HeLa cells expressing TDP-4FL; assay: Immunofluorescence of TDP-4FL inclusion morphology, WT HeLa; settings: for Proportion of Morphology: Aggregate / Proportion of Morphology: Anisosome: WT
Method: (§1) HeLa Cells were plated onto glass coverslips and transfected with TDP-4FL using Fugene HD for 24 hours. Cells were fixed with 4% paraformaldehyde (Electron Microscopy Sciences), permeabilized with 0.1% Triton-X (Thermo Fisher Scientific), and blocked with 2% FBS DPBS. Primary antibodies were diluted in 2% FBS DPBS. Cells were stained with 300 nM DAPI, and coverslips were mounted onto glass slides using ProLong Glass Antifade Mountant (Thermo Fisher Scientific). Confocal images were obtained using a Leica TCS SPE laser scanning confocal microscope.
(A) High power magnification immunofluorescence confocal images of HeLa cells expressing TDP-4FL stained for myc-TDP (green) Scale bar, 5 µm. […]
(C) Representative confocal microscopy immunofluorescence confocal images of HeLa cells […]
(§2) yellow represent cells that were categorized as anisosome morphology. Nuclei outline in white represent cells that were categorized as aggregate morphology. Cells with approximately more than 50% anisosome inclusions were categorized as anisosome morphology whereas cells with approximately more than 50% aggregate-like inclusions were categorized as aggregate morphology. Binucleate cells were excluded from the total counts. Scale bar, 10 µm.
(§3) (1 picture or pasted object on this page, not shown here)

[2] = tested on: A232E HeLa cells expressing TDP-4FL; assay: Immunofluorescence of TDP-4FL inclusion morphology, A232E HeLa
Method: as §1, with “microscope. Primary antibodies used include mouse anti-Myc (9E10), rabbit anti-Myc (ab9106), mouse anti-VCP (NB120-11433), and mouse anti-ubiquitin (ST1200, Millipore) with Alexa Flour 488 or 568 (Invitrogen) as secondary antibodies. […]” for “microscope.”
(§4) morphologies with MG132 treatment.
(§5) (A) High power magnification immunofluorescence confocal images of HeLa cells expressing TDP-4FL stained for myc-TDP (green) Scale bar, 5 µm. (B) Immunofluorescence confocal images of HeLa cells treated with or without 5% 1’6-Hexanediol for 10 minutes stained for myc-TDP (green) or DAPI (blue). Scale bar, 5 µm. (C) Representative confocal microscopy immunofluorescence confocal images of HeLa cells […]
as §2, §3

[3] = tested on: R155H HeLa cells expressing TDP-4FL; assay: Immunofluorescence of TDP-4FL inclusion morphology, R155H HeLa
Method: as §1, with “microscope. Primary antibodies used include mouse anti-Myc (9E10), rabbit anti-Myc (ab9106), mouse anti-VCP (NB120-11433), and mouse anti-ubiquitin (ST1200, Millipore) with Alexa Flour 488 or 568 (Invitrogen) as secondary antibodies. […]” for “microscope.”
as §4, §5, §2, §3

CC(C)C[C@@H](C=O)NC(=O)[C@H](CC(C)C)NC(=O)[C@H](CC(C)C)NC(=O)OCc1ccccc1 [MG132] (Cbz-Leu-Leu-Leu-aldehyde)
TDP-4FL inclusion size and morphology upon proteasome inhibition ([1]; 4 μM MG132, 1 μM ixazomib or 1 μM epoxomicin, 3 or 6 hours): coalesced into larger, irregularly shaped aggregates
Proportion of Morphology: Aggregate ([1]; MG132 3 hours): 0.538 and 0.500 and 0.591 and 0.474
Proportion of Morphology: Anisosome ([1]; MG132 3 hours): 0.462 and 0.500 and 0.409 and 0.526
Proportion of Morphology: Aggregate ([1]; MG132 6 hours): 0.636 and 0.719 and 0.766
Proportion of Morphology: Anisosome ([1]; MG132 6 hours): 0.364 and 0.281 and 0.234
Proportion of Morphology: Aggregate ([2]; MG132 3 hours): 0.604 and 0.568 and 0.630 and 0.595
Proportion of Morphology: Anisosome ([2]; MG132 3 hours): 0.396 and 0.432 and 0.370 and 0.405
Proportion of Morphology: Aggregate ([2]; MG132 6 hours): 0.766 and 0.785 and 0.833
Proportion of Morphology: Anisosome ([2]; MG132 6 hours): 0.234 and 0.215 and 0.167
Proportion of Morphology: Aggregate ([3]; MG132 3 hours): 0.608 and 0.623 and 0.684 and 0.640
Proportion of Morphology: Anisosome ([3]; MG132 3 hours): 0.392 and 0.377 and 0.316 and 0.360
Proportion of Morphology: Aggregate ([3]; MG132 6 hours): 0.768 and 0.744 and 0.727
Proportion of Morphology: Anisosome ([3]; MG132 6 hours): 0.232 and 0.256 and 0.273
